Measurements reported in article PMC6513986, “Molecular basis for heat desensitization of TRPV1 ion channels” (Nature Communications, 2019).

How the values were obtained:
[1] = biological target: platypus TRPV1 (pV1) (Ornithorhynchus anatinus, UniProt F7A7B4); test: Agonist activation, patch clamp, HEK293T; type: cell-based; conditions: whole-cell, 3 mM
[2] = biological target: pV1_643 (ANAP) (Ornithorhynchus anatinus, UniProt F7A7B4, S634X)
[3] = biological target: mV1_654 (ANAP) (Mus musculus, UniProt Q704Y3, Y654X); test: Agonist activation of ANAP-incorporated channel, patch clamp; type: cell-based
[4] = biological target: pV1_241 (ANAP) (Ornithorhynchus anatinus, UniProt F7A7B4); test: as above; type: cell-based, platypus
[5] = biological target: mV1_579 (ANAP) (Mus musculus, UniProt Q704Y3, C579X); test: as above; type: cell-based
[6] = biological target: mV1_651 (ANAP) (Mus musculus, UniProt Q704Y3, T651X); test: as above; type: cell-based
[7] = biological target: mV1_241 (ANAP) (Mus musculus, UniProt Q704Y3, K241X); test: as above; type: cell-based
[8] = biological target: mV1_630 (ANAP) (Mus musculus, UniProt Q704Y3, S630X); test: as above; type: cell-based
[9] = biological target: mV1_685 (ANAP) (Mus musculus, UniProt Q704Y3, E685X); test: as above; type: cell-based
[10] = biological target: mV1_648 (ANAP) (Mus musculus, UniProt Q704Y3, L648X); test: as above; type: cell-based
[11] = Emission peak of free ANAP at different temperatures; type: physicochemical; conditions: n=3
Text: ANAP fluorescence was excited by the Ar laser with a 375/28 excitation filter, T400lp dichroic mirror, and 435LP emission filter on an inverted fluorescence microscope (Nikon TE2000-U) using a ×40 oil-immersion objective (numerical aperture (NA) 1.3). Emission spectrum of ANAP was imaged with an Acton SpectraPro 2150i spectrograph in conjunction with an Evolve 512 EMCCD camera. The emission peak value was found by fitting the spectrum with a skewed Gauss distribution.

SMILES | activation of pV1 by 2-APB ([1]; listed as 2-APB) | activation of pV1 by 2-APB ([1]; listed as 2-aminoethoxydiphenyl borate) | 2APB activation [2] | 2APB activation [3] | 2APB activation [4] | 2APB activation [5] | 2APB activation [6] | 2APB activation [7] | 2APB activation [8] | 2APB activation [9] | 2APB activation [10] | change of emission spectrum during heating [11]
NCCOB(c1ccccc1)c1ccccc1 [2APB, 2-aminoethoxydiphenyl borate] | currents elicited | directly activated | Yes | Yes | Yes | Yes | Yes | Yes | Yes | Yes | Yes | 
CC(=O)c1ccc2cc(NCC(N)C(=O)O)ccc2c1 (stereo not drawn) [free ANAP, 3-(6-acetylnaphthalen-2-ylamino)-2-aminopropanoic acid] |  |  |  |  |  |  |  |  |  |  |  | no change
